Source: publication PMC7067850, “Identification of highly potent and selective inhibitor, TIPTP, of the p22phox-Rubicon axis as a therapeutic agent for rheumatoid arthritis” (Scientific Reports, 2020)

Experiments:
BMDMs = test: MTT assay for cell viability; assay type: cell-based, mouse; settings: different concentrations and times (Fig. 3b)
Description: The mouse macrophage cell line RAW264.7 (ATCC TIB-71; American Type Culture Collection) and HEK293T (ATCC-11268) cells were maintained in DMEM (Invitrogen) containing 10% FBS (Invitrogen), sodium pyruvate, nonessential amino acids, penicillin G (100 IU/ml), and streptomycin (100 μg/ml). Transient transfections were performed with Lipofectamine 3000 (Invitrogen), or calcium phosphate (Clontech), according to the manufacturer’s instructions. Raw264.7 stable cell lines were generated using a standard selection protocol with 2 μg/ml of puromycin. Mouse primary bone marrow derived-macrophages (BMDMs) were isolated from C57BL/6 mice and cultured in DMEM for 3–5 days in the presence of 25 ng/ml recombinant macrophage colony stimulating factor (R&D Systems, 416-ML, Minneapolis, MN, USA), as described previously. Human adherent monocytes were prepared from PBMCs donated by healthy subjects, as described previously.
Figure 3 TIPTP robustly suppresses LPS/ATP-mediated Rubicon-p22phox interaction and ROS-mediated inflammation. (a) Structure of the TIPTP. (b) MTT assay for cell viability. BMDMs were incubated with TIPTP for the indicated times at the indicated TIPTP concentrations (upper). WCLs were used for IB with α22phox, αRubicon, or αActin (lower). […] Quantitative analysis of mean fluorescence intensities of ROS (lower). […] (f) Culture supernatants were harvested and analyzed for cytokines by ELISA. […]

[1] = test system: collagen-induced arthritis; test: Collagen-induced arthritis (CIA) mouse model; assay type: in vivo
Description: The collagen-induced arthritis mouse model was established as previously described. Briefly, male DBA/1 J mice (6 − 8-weeks-old) were obtained from Beijing Vital River Laboratory Animal Technology Co., Ltd. (Charles River Laboratories department in Beijing, China), and kept under specific pathogen-free conditions. Chick collagen type II (Chondrex, Redmond, Washington, USA) was dissolved in 0.05 M acetic acid to a concentration of 2 mg/mL and emulsified with a complete Freund’s adjuvant (2 mg/mL M. tuberculosis H37Ra, Chondrex). At the beginning of the experiments (day 0), the mice were immunized with a 0.1 mL emulsion containing 100 μg of collagen at the tail base with a glass syringe and 25-G needles and then administered a booster (on day 21) with the same preparation of collagen and incomplete Freund’s adjuvant (Chondrex).
Cell culture supernatants, mice sera and synovial fluid were analyzed for cytokine content using the BD OptEIA ELISA set (BD Pharmingen) for the detection of TNF-α, IL-6, IL-1β, and IL-18. All assays were performed as recommended by the manufacturer.
(§1) Intracellular ROS levels were measured by flow cytometry from cells cultured in serum-free medium and loaded with the redox-sensitive dye 2 µM dihydroethidium (DHE for O2^−; Calbiochem) or 10 µM 2′,7′-Dichlorofluorescin diacetate (DCFH-DA for H2O2; Calbiochem)[18],[19]. The cells were thoroughly and quickly washed with pulse spin and immediately acquired for analyses in FACSCalibur (BD Biosciences, San Jose, CA). The data were plotted using CellQuest software (BD Biosciences).
Figure 4 TIPTP protects mice from CIA mice. (a) Schematic of the CIA model treated with TIPTP (upper). FACS analysis for superoxide and hydrogen peroxide from synovial fluid containing synoviocytes from CIA (lower). (b) Representative H&E staining of the ankle joints of each group were determined at 4 wks of CIA (left). Clinical arthritis score and swelling of paws (right) from ten mice per group. Scale bars: 500 μm. Serum (c) and Synovial fluid (d) were harvested at 4 wks of CIA and analyzed for cytokines by ELISA. […]
Arthritis mice were evaluated for disease progression three times a week as follows ^1,2. Each limb was scored according to the severity of inflammation, where 0 : no evidence of redness or swelling, 1 : redness and slight swelling confined to the tarsal joints or ankle, 2 : redness and mild swelling extending from the ankle to the tarsal joints, 3 : redness and moderate swelling extending from the ankle to the metatarsal joints, and 4 : severe swelling encompassing the ankle, foot, and digits, or ankylosis of the limb. […]

ROS (O2− and H2O2) = test: Flow cytometric measurement of ROS production in BMDMs; assay type: cell-based, mouse; settings: LPS-primed BMDMs, compound 1 h, ATP 30 min (Fig. 3d)
Description: as §1
Figure 3 TIPTP robustly suppresses LPS/ATP-mediated Rubicon-p22phox interaction and ROS-mediated inflammation. (a) Structure of the TIPTP. (b) MTT assay for cell viability. BMDMs were incubated with TIPTP for the indicated times at the indicated TIPTP concentrations (upper). WCLs were used for IB with α22phox, αRubicon, or αActin (lower). (c–f) LPS (100 ng/ml)-primed BMDMs were treated with compounds for 1 h, and then activated with ATP (1 mM) for 30 min. (c) NADPH oxidase activity. (d) FACS analysis for superoxide and hydrogen peroxide (upper). Quantitative analysis of mean fluorescence intensities of ROS (lower). (e) BMDMs were incubated with increasing concentrations of compound 1 and TIPTP (com 2) (***). IP with αRubicon, followed by IB with αp22phox, αBeclin-1, αUVRAG, αRubicon. […] (f) Culture supernatants were harvested and analyzed for cytokines by ELISA. […]

Plasma stability assay = assay type: in vitro ADME; settings: 37 °C
Description: Human plasma in each culture tube, treated with test compound (10 μM), was incubated at 37 °C for 0, 30 and 120 min. At the determined period of time, internal standard solution of chlopropamide in acetonitrile was added into each culture tube and then tubes were vortexed for 5 min, and then centrifuged for 5 min (14,000 rpm, 4 °C). The supernatant was then injected into LC-MS/MS system to analyze the plasma stability of the tested compound.

With C[C@@H](Oc1cccc(-n2cc3c(n2)CCCC3)c1)C(=O)Nc1nnc(C(F)(F)F)s1 [TIPTP, (R)-2-(3-(4,5,6,7-tetrahydro-2H-indazol-2-yl)phenoxy)-N-(5-(trifluoromethyl)-1,3,4-thiadiazol-2-yl)propanamide] the “cell viability of BMDMs” value (BMDMs) was “did not induce any significant change”, the “severity of RA (clinical parameters, paw thickness, histology) vs vehicle-treated CIA mice” value ([1]; CIA mice (Fig. 4b, Supplemental Fig. 6a)) was “markedly lower” and the “serum and synovial fluid concentrations of TNF-α, IL-6, IL-1β, and IL-18” value ([1]; CIA mice, 4 wks, ELISA (Fig. 4c,d)) was “significantly attenuated”. For the same compound, the “production of ROS by synovial tissues” value ([1]; CIA mice, dose-dependent (Fig. 4a)) was “significantly attenuated”, the “binding of p22phox with Rubicon protein in synoviocytes” value ([1]; synoviocytes from CIA mice, co-IP (Fig. 4e)) was “markedly decreased” and the “ROS (O2− and H2O2) generation” value (ROS (O2− and H2O2)) was “inhibited in a dose-dependent manner”. For the same compound, the “Human plasma stability (% remaining after 30 min)” value (Plasma stability assay; 10 μM, 30 min, listed as TIPTP (2)) was 97.4%, the “Human plasma stability (% remaining after 2 h)” value (Plasma stability assay; 10 μM, 2 h, listed as TIPTP (2)) was 93.8% and the remaining at 0.5 h, 10 μM (Plasma stability assay; human, plasma, 30 min, read-out: Human plasma stability (% remaining after 30 min)) was 97%. The remaining at 2 h, 10 μM (Plasma stability assay; human, plasma, 2 h, read-out: Human plasma stability (% remaining after 2 h)) was 94%.
